According to PMC10452847 (Cancers, 2023):

Key:
[1] = two-drug combination tolerability study; format: in vivo, mice; details: futibatinib oral M-F three weeks, irinotecan iv Monday for three weeks, vincristine iv once
Experimental: Figure A4 Two-drug combination tolerability study. (A) Schematic of tolerability study. […] Irinotecan was given via tail vein injection at two dosages (75 mg/kg and 50 mg/kg) on Monday for three weeks. (B) Relative body weights of mice treated with the futibatinib-vincristine or futibatinib-irinotecan combinations.

[2] = test system: RH4 xenograft; assay: two-drug combination xenograft efficacy study; format: in vivo, NSG mice; details: futibatinib 15 mg/kg, irinotecan 25 mg/kg, vincristine 0.4 mg/kg, vehicle 39
[3] = test system: SCMC xenograft; assay: two-drug combination xenograft efficacy study; format: in vivo, NSG mice; details: for Days (survival, inset of Figure 4): SCMC xenograft, futibatinib 15 mg/kg, irinotecan 50 mg/kg decreased to 25 mg/kg, vincristine 0.4 mg/kg, vehicle 30
[4] = test system: RMS559 xenograft; assay: triple combination xenograft efficacy study; format: in vivo, NSG mice; details: for median survival: futibatinib 10 mg/kg oral M-F 3 weeks, irinotecan 6 mg/kg iv once, vincristine 0.4 mg/kg iv once, vehicle 11
[5] = test system: RMS559 xenograft; assay: two-drug combination xenograft efficacy study; details: for median survival: futibatinib 15 mg/kg, irinotecan 25 mg/kg, vincristine 0.4 mg/kg, vehicle 23
[6] = test system: RMS559 xenograft; set-up: method as in PMID 36097178; details: RMS559 xenograft models; twice daily dosing, nude mice; cited from earlier work
[7] = test system: mutant FGFR4-driven RMS tumor; set-up: method as in PMID 24124571; details: cited from earlier work
[8] = test system: phosphorylation of FGFR4 and ERK1/2 in RMS559; assay: Western blot of RMS559 treated with futibatinib; format: cell-based, human; details: increasing concentrations, 6 h
Experimental: Cells were collected with a cell scraper, then pelleted by centrifugation, washed with ice-cold PBS, and lysed in RIPA buffer with 1% HALT Protease and Phosphatase inhibitors. Lysates were sonicated to shear genomic DNA and clarified by centrifugation at 18,000× g for 20 min. The protein concentration of the resulting supernatant was determined by BCA assay. 20 μg of protein was run on NuPage 4–12% BisTris gels (Invitrogen, Carlsbad, CA, USA) and transferred to PVDF membranes (Invitrogen). Membranes were blocked in 5% nonfat dried milk in TBST for 1 h at room temperature and incubated with primary antibody overnight at 4 °C. HRP-conjugated anti-rabbit secondary antibody was used to probe the primary antibody. Protein was visualized using Amersham ECL Western Blotting Detection Reagent (Amersham, UK). The following antibodies were used: pFGFR4 (ab192589, Abcam, Cambridge, UK), FGFR4 (8562, Cell Signaling Technology (CST), Danvers, MA, USA), pERK1/2 (4370, CST), ERK1/2 (4695, CST), and GAPDH (8884, CST). Relative band intensity was quantified in Image Lab software (Version 5.2.1, Bio-Rad, Philadelphia, PA, USA)

[9] = test system: advanced solid tumors with FGFR aberrations; details: 197 patients with advanced solid tumors with FGFR aberrations; cited from earlier work
[10] = in vivo; details: NOD SCID Gamma (NSG), mouse, plasma, po, 25 mg/kg, 25 mg/kg oral gavage, single dose, SCMC tumor-bearing mice
[11] = test system: RMS559 xenograft; assay: futibatinib single agent xenograft efficacy study; details: 5-25 mg/kg daily (SID) oral gavage, three weeks, vs vehicle
[12] = test system: RH4 xenograft; assay: futibatinib single agent xenograft efficacy study; details: 5-25 mg/kg daily (SID) oral gavage, three weeks, vs vehicle
[13] = test system: SCMC xenograft; assay: futibatinib single agent xenograft efficacy study; details: 5-25 mg/kg daily (SID) oral gavage, three weeks, vs vehicle

Compound | maximum tolerated dosages for the drug combinations [1] [mg/kg] | Days (survival, inset of Figure 4) [2] [days] | Days (survival, inset of Figure 4) [3] [days] | median survival [4] [days] | median survival [5] [days] | other results
CCc1c2c(nc3ccc(OC(=O)N4CCC(N5CCCCC5)CC4)cc13)-c1cc3c(c(=O)n1C2)COC(=O)[C@]3(O)CC [irinotecan] | 50 | 51.5 | 48 | 15 | 29 | toxicity of dose ([3]; irinotecan 50 mg/kg iv on Monday, SCMC xenograft study): toxic
COCCNc1cc(NC(=O)N2CCCc3cc(CN4CCN(C)CC4=O)c(C=O)nc32)ncc1C#N [FGF401] |  |  |  |  |  | effect on tumor progression [6]: effective at delaying tumor progression
CC[C@]1(O)C[C@H]2CN(CCc3c([nH]c4ccccc34)[C@@](C(=O)OC)(c3cc4c(cc3OC)N(C=O)[C@H]3[C@@](O)(C(=O)OC)[C@H](OC(C)=O)[C@]5(CC)C=CCN6CC[C@]43[C@@H]65)C2)C1 [vincristine] | 0.4 | 41 | 37 | 15 | 23 | average tumor volume ([5]; day 18 of treatment, futibatinib 15 mg/kg oral M-F 3 weeks, irinotecan 25 mg/kg iv Monday 3 weeks, vincristine 0.4 mg/kg iv once): 1016 mm^3
Cc1ccc(C(=O)Nc2ccc(CN3CCN(C)CC3)c(C(F)(F)F)c2)cc1C#Cc1cnc2cccnn12 [ponatinib] |  |  |  |  |  | effect on tumor growth in mice [7]: inhibit mutant FGFR4-driven RMS tumor growth
C=CC(=O)N1CC[C@H](n2nc(C#Cc3cc(OC)cc(OC)c3)c3c(N)ncnc32)C1 [futibatinib] | 15 | 36 | 33 | 15 | 23 | phosphorylation of FGFR4 and ERK1/2 (western blot) [8]: inhibited phosphorylation of FGFR4 and a downstream target ERK1/2 in a dose-dependent manner; average tumor volume ([4]; day 11 of treatment, futibatinib 10 mg/kg oral M-F, vehicle 1532): 1072 mm^3; objective response rate (ORR) [9]: 13.7%; half-life [10]: ~4 h; effect in delaying tumor growth or prolonging survival [11]: no significant effect; effect in delaying tumor growth or prolonging survival [12]: no significant effect; effect in delaying tumor growth or prolonging survival [13]: no significant effect
